This assay deals with Sodium-dependent dopamine transporter (Rattus norvegicus, UniProt P23977). The experiment in a line: Binding affinity towards dopamine transporter using [3H]WIN-35428 as radioligand in rat caudate-putamen tissue. In kind it is tissue-based.

pKi: −log10 of the molar value.

One may read the pKi as −log10 of the Ki, conventionally taken in molar units.

Chain of Sodium-dependent dopamine transporter (P23977 whole entry): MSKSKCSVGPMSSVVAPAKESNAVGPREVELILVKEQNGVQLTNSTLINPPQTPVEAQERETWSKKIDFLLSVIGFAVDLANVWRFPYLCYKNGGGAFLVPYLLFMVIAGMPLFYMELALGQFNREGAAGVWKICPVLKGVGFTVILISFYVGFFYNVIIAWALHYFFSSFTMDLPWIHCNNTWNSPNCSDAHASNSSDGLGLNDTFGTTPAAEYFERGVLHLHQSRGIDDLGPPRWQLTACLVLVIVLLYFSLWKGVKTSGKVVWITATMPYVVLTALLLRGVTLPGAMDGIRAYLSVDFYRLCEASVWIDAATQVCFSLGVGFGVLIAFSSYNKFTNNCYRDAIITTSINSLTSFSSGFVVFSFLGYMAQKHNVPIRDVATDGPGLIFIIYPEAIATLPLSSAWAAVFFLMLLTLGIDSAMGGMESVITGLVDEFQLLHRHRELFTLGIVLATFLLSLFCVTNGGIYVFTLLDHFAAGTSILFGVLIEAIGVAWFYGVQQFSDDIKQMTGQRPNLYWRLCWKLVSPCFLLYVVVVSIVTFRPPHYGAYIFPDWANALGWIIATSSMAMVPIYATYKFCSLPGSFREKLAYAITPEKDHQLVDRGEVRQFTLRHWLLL

`COC(=O)[C@@H]1C2CCC([C@@H]1c1ccccc1)N2C` (stereo partly drawn) showed a negative logarithm of the Ki (pKi) of 4.22. As for `COC(=O)[C@H]1C2CCC([C@H]1c1ccccc1)N2C` (stereo partly drawn), the figure is 4.72. Take `COC(=O)[C@@H]1C2CCC([C@H]1c1ccccc1)N2C` (stereo partly drawn): the negative-log Ki (pKi) was 5.25.

Values taken from ChEMBL document CHEMBL1131005, “Synthesis and dopamine transporter affinity of the four stereoisomers of (+/-)-2-(methoxycarbonyl)-7-methyl-3-phenyl-7-azabicyclo[2.2.1]heptane” (J Med Chem, 1998).
